Measurements: the supplement of paper PMC10307832

Tests used:
Assay in all cases: relative viability (nuclei count vs DMSO), 5 days (fraction); higher = more cells survive
[1] = compound: CCC1=CN=CN=C1N2CCN(CC2)CC3=NC4=C(N3)C=C(C=C4)C(F)(F)F + CC(=O)Nc1cccc(-n2c(=O)n(C3CC3)c(=O)c3c(Nc4ccc(I)cc4F)n(C)c(=O)c(C)c32)c1 [Trametinib] (partner 0.02 µM)
Summary of the method: (§1)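 One day after seeding in 1536-well plates, lung cancer cell lines were dosed by pin tool. Dosing was either single-drug or a fixed anchor-drug dose plus five library-drug doses (not always all listed) in √10 steps. After 5 days, nuclei were stained in one fix-and-stain step and counted on 4× images, and relative viability is the nuclei count of treated wells over that of vehicle wells, given as the median of duplicate plates.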

[2] = compound: N=C1NC(=O)/C(=C/c2ccc(O)cc2)S1 [Mirin] + N=C(N)NC(=N)NCCc1ccccc1 [Phenformin] (partner 250 µM)
Summary of the method: as §1

[3] = compound: CCn1c(-c2nonc2N)nc2cnc(Oc3cccc(NC(=O)c4ccc(OCCN5CCOCC5)cc4)c3)cc21 + Cc1nc(NC(=O)N2CCC[C@H]2C(N)=O)sc1-c1ccnc(C(C)(C)C(F)(F)F)c1 [Alpelisib] (partner 2 µM)
Summary of the method: as §1

[4] = compound: CCC1=CN=CN=C1N2CCN(CC2)CC3=NC4=C(N3)C=C(C=C4)C(F)(F)F + CS(=O)(=O)N1CCN(Cc2cc3nc(-c4cccc5[nH]ncc45)nc(N4CCOCC4)c3s2)CC1 [Pictilisib] (partner 1 µM)
Summary of the method: as §1

Cell Line | relative viability ([1]; first compound 0.04 µM) | relative viability ([1]; first compound 0.1265 µM) | relative viability ([1]; first compound 0.4 µM) | relative viability ([1]; first compound 1.265 µM) | relative viability ([1]; first compound 4 µM) | relative viability ([2]; first compound 0.25 µM) | relative viability ([2]; first compound 2.5 µM) | relative viability ([2]; first compound 7.906 µM) | relative viability ([2]; first compound 25 µM) | relative viability ([3]; first compound 0.04 µM) | relative viability ([3]; first compound 0.1265 µM) | relative viability ([3]; first compound 1.265 µM) | relative viability ([3]; first compound 4 µM) | relative viability ([4]; first compound 0.04 µM) | relative viability ([4]; first compound 0.1265 µM) | relative viability ([4]; first compound 0.4 µM) | relative viability ([4]; first compound 1.265 µM) | relative viability ([4]; first compound 4 µM) | relative viability ([2]; first compound 0.7906 µM) | relative viability ([3]; first compound 0.4 µM)
NCI-H23 | 0.405 | 0.409 | 0.396 | 0.375 | 0.385 | 0.817 | 0.747 | 0.753 | 0.862 | 0.874 | 0.831 | 0.604 | 0.495 | 0.58 | 0.439 | 0.41 | 0.348 | 0.432 | – | –
NCI-H322M | 0.483 | 0.611 | 0.537 | 0.458 | 0.62 | 0.792 | 0.777 | 0.963 | 0.628 | 0.895 | 0.816 | 0.939 | 0.909 | 0.581 | 0.484 | 0.507 | 0.381 | 0.524 | 0.623 | 0.759
NCI-H358 | 0.126 | 0.173 | 0.171 | 0.127 | 0.142 | 0.344 | 0.318 | 0.313 | 0.213 | 1.01 | 1.04 | 0.65 | 0.42 | 0.4 | 0.282 | 0.349 | 0.289 | 0.359 | 0.347 | 0.792
NCI-H441 | 0.482 | 0.452 | 0.464 | 0.37 | 0.499 | 0.763 | 0.782 | 0.718 | 0.628 | 0.688 | 0.834 | 0.599 | 0.44 | 0.571 | 0.435 | 0.451 | 0.435 | 0.418 | 0.876 | 0.68
NCI-H460 | 0.152 | 0.203 | 0.11 | 0.0864 | 0.0963 | 0.551 | 0.5 | 0.522 | 0.623 | 0.72 | 0.452 | 0.205 | 0.15 | 0.41 | 0.291 | 0.36 | 0.224 | 0.395 | 0.485 | 0.444
NCI-H520 | 0.784 | 0.583 | 0.582 | 0.582 | 0.593 | 0.751 | 0.701 | 0.338 | 0.356 | 1.18 | 0.982 | 0.788 | 0.522 | 0.326 | 0.28 | 0.238 | 0.255 | 0.279 | 0.459 | 0.897
NCI-H596 | 0.821 | 0.804 | 0.724 | 0.788 | 0.647 | 0.709 | 0.704 | 0.787 | 0.736 | 0.482 | 0.51 | 0.49 | 0.55 | 0.399 | 0.366 | 0.396 | 0.327 | 0.413 | 0.713 | 0.612
NCI-H647 | 0.501 | 0.543 | 0.469 | 0.238 | 0.448 | 0.613 | 0.521 | 0.542 | 0.36 | 1.04 | 0.746 | 0.657 | 0.577 | – | 0.433 | – | – | 0.399 | 0.455 | 0.795
NCI-H650 | 0.95 | 0.996 | 0.985 | 0.814 | 0.856 | 0.436 | 0.453 | – | 0.546 | 1.31 | 0.893 | 0.434 | 0.492 | 0.875 | 0.82 | 0.983 | 0.736 | 0.841 | 0.384 | 0.745
NCI-H661 | 0.638 | 0.591 | 0.508 | 0.471 | 0.49 | 0.292 | 0.287 | 0.272 | 0.247 | 0.823 | 0.724 | 0.287 | 0.451 | 0.358 | 0.402 | 0.412 | – | 0.366 | 0.278 | 0.435
NCI-H727 | 0.346 | 0.325 | 0.386 | 0.323 | 0.379 | 0.828 | 0.444 | 0.657 | 0.577 | 0.745 | 0.833 | 0.84 | 0.713 | 0.521 | 0.377 | 0.29 | – | 0.382 | 0.922 | 0.751
NCI-H838 | 0.574 | 0.481 | 0.455 | 0.412 | 0.648 | 0.654 | 0.634 | 0.626 | 0.468 | 0.654 | 0.467 | 0.406 | 0.332 | 0.507 | 0.531 | 0.41 | 0.258 | 0.482 | 0.292 | 0.484
NCI-H1355 | 0.435 | 0.395 | 0.426 | 0.331 | 0.451 | 0.472 | 0.456 | 0.47 | 0.521 | 0.863 | 0.951 | 0.814 | 0.863 | 0.541 | 0.414 | 0.361 | 0.293 | 0.453 | 0.463 | 0.818
NCI-H1395 | 1.05 | 0.993 | 1.11 | – | 0.96 | 0.41 | 0.435 | 0.463 | 0.412 | 1.26 | 0.877 | 0.493 | 0.634 | 0.59 | 0.553 | 0.619 | 0.572 | 0.646 | 0.421 | 0.948
NCI-H1437 | 0.539 | 0.42 | 0.421 | 0.423 | 0.438 | 0.31 | 0.318 | 0.3 | 0.309 | 1.06 | 0.888 | 0.809 | 0.753 | 0.511 | 0.404 | 0.395 | 0.336 | 0.439 | 0.333 | 0.833
NCI-H1651 | 0.884 | 0.855 | 0.846 | 0.791 | 0.797 | 0.332 | 0.324 | 0.336 | 0.319 | 1.09 | 1.06 | 0.964 | 0.653 | 0.625 | 0.607 | 0.487 | 0.65 | 0.675 | 0.34 | 0.883
